Reference: publication PMC8072580, “Predicting Pharmacokinetic Properties of Potential Anticancer Agents via Their Chromatographic Behavior on Different Reversed Phase Materials” (International Journal of Molecular Sciences, 2021)

Experiments:
[1] = parameters: method as in PMID 31864156; details: IAM.PC.DD2 column, buffered acetonitrile; cited from earlier work
[2] = Micellar liquid chromatography (MLC), ODS-2 column, Brij 35 effluent: chromatographic lipophilicity; type: physicochemical; details: pH 7.4, ODS-2 column, 25 °C
From the text: There are several theories that describe the effect of the concentration of the surfactant in the effluent on the retention of the solute in MLC [23]. The following Foley’s equation is best known in lipophilicity studies:(2) 1/k=1/km+KAM/km[M] where [M] is the total concentration of the surfactant in the mobile phase minus CMC; KAM is the constant that describes solute-micelle binding; and km is the solute retention parameter at the micellar concentration of zero, i.e., when the concentration of the surfactant monomer is equal to CMC. The KAM and km parameters can be evaluated from the slope and intercept of the experimental 1/k vs. [M] relationships.
Equation (2) describes a linear dependence between decreasing retention and increasing micelle concentration. This equation is valid for aqueous solutions of surfactant or mobile phases with the same concentrations of the organic modifier. The micellar retention parameter, log km, is considered analogous to the log kw parameter evaluated in RPLC. According to the information presented above, this parameter is considered to be a lipophilicity descriptor, and Equation (2) is a simple way to indirectly determine the lipophilic properties of compounds. It is postulated that retention in micellar chromatography depends on hydrophobic (lipophilic), electronic, and steric features of the compounds in a similar way as has been noted concerning pharmacokinetic phenomena. The additional similarity results from the fact that the phospholipids, cholesterol, fatty acids, and triglycerides included in the extracellular and intracellular fluids also form micelles with proteins.
In our investigations, the micellar retention factors were used to calculate the log km parameters using Equation (2) (Table 2). For all of the compounds 1-19, the relationships of 1/k vs. [M] were obtained with very good linearity, confirming that Foley’s equation correctly describes the effect of the concentration of the surfactant in the effluent on the retention of the solute. In our studies, the micellar log km parameters for three pharmacologically active sets of compounds 1-6, 7-14, and 15-19 and the log k factors for solutes 15-19 obtained on IAM and end-capped ODS stationary phases were determined experimentally. All these retention factors, together with the log kw values for compounds 1-14 obtained in our earlier investigations on IAM and end-capped ODS stationary phases, were used as lipophilicity descriptors in the QSARs methodology to predict the pharmacokinetic descriptors of the compounds that were tested.
Shimadzu Vp (Shimadzu, Izabelin, Polska) liquid chromatographic system was used in HPLC measurements. It was equipped with an LC 10AT pump, SPD 10A UV–Vis detector, SCL 10A system controller, CTO-10 AS chromatographic oven, and Rheodyne injector valve with a 20 μL loop. As the stationary phases, 3 different revered-phase materials were applied: Spherisorb ODS-2 column, 125 × 4 mm i.d., 5 μm (Merck, Lublin, Poland), Regis IAM.PC.DD2 column, 100 × 4.6 mm i.d., 10 μm (Morton Grove, Illinois, USA), and Purosphere RP-18e column, 125 × 4 mm i.d., 5 μm (Merck, Lublin, Poland).
In the MLC technique with an ODS-2 column, buffered Brij 35 mixtures (0.15; 0.125, 0.10, and 0.075 mol/L) with 7% (v/v) addition of isopropanol were used as mobile phases. The buffer was prepared from 0.01 mol/L solutions of Na2HPO4 and citric acid, and the pH 7.4 value was fixed before mixing with an organic modifier. The flow rate was 1 mL/min. Buffered acetonitrile mixtures were used as effluents with the IAM column. Acetonitrile concentration, expressed as a volume fraction, was changed in the range of 0.2–0.5, with the constant step of 0.1. The flow rate was 1.3 mL/min. Acetonitrile concentration was changed in the range of 0.3–0.6 with the RP-18e column, with the constant step of 0.1 and flow rate of 0.1 mL/min. As solutes tested there were used 19 newly designed structurally related compounds. […]

[3] = system: Danio rerio; parameters: method as in PMID 33390035; details: cited from earlier work
[4] = system: human cancer cells; parameters: method as in PMID 31864156, PMID 16545495, PMID 25528370; details: cited from earlier work
[5] = parameters: method as in PMID 31864156; details: end-capped ODS column, aqueous acetonitrile; cited from earlier work

## Cc1ccccc1N1CCn2c1nnc(C(F)(F)F)c2=O [Compound 8]
[1]
  log kw,IAM: 0.76 [19]
[2]; 0.075 M Brij 35, 7% isopropanol
  k (MLC retention factor): 6.50
[2]; 0.1 M Brij 35, 7% isopropanol
  k (MLC retention factor): 5.97
[2]; 0.125 M Brij 35, 7% isopropanol
  k (MLC retention factor): 5.52
[2]; 0.15 M Brij 35, 7% isopropanol
  k (MLC retention factor): 5.28
[3]
  safety for early life stages of Danio rerio compared with pemetrexed: safer for the early life stages of Danio rerio than pemetrexed
[4]
  antiproliferative effects in cancer cells compared with normal cells: clearly higher antiproliferative effects in cancer cells than in normal cells
[5]
  log kw,ODS: 1.81 [19]
